Here are results for six compounds from patent publication US9212135B2, “Phenylthioacetate compounds, compositions and methods of use” (Ardea Biosciences, Inc., priority 2010, dated 2015).

The test addresses T1, URAT1 (Homo sapiens, UniProt Q96S37).
T1 sequence (Q96S37 1-553): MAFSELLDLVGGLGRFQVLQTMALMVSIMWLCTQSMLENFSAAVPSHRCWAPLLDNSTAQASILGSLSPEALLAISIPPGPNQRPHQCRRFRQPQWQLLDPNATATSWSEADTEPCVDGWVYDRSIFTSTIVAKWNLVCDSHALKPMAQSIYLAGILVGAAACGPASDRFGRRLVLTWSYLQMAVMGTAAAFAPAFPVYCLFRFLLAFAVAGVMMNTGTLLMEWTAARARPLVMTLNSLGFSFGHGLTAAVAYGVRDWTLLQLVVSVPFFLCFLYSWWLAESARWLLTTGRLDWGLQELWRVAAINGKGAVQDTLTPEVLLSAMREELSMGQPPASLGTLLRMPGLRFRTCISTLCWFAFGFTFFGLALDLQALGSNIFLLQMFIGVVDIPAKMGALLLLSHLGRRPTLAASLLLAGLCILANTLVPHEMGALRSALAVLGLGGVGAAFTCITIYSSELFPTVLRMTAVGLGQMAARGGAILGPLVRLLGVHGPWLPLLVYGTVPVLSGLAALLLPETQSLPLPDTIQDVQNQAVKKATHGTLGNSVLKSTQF
Nature of the test: URAT1-model assay (14C-uric acid transport in HEK293/URAT1-model cells). To be noted: 125 μM 14C-uric acid, 10 minutes at room temperature, read-out: URAT-1 model cell-based C14 EC50 Ranking. As for the experimental part:
HEK293 human embryonic kidney cells (ATCC# CRL-1573) were propagated in EMEM tissue culture medium as described by ATCC in an atmosphere of 5% CO2 and 95% air. Transfections of HEK293 cells with a model URAT1 construct was performed using L2000 transfection reagent (Invitrogen) as described by the manufacturer. After 24 h the transfected cells were split into 10 cm tissue culture plates and grown for 1 day after which the medium was replaced with fresh growth medium containing G418 (Gibco) at 0.5 mg/ml final concentration. Drug-resistant colonies were selected after approximately 8 days and then tested for ^14C-uric acid transport activity. The HEK293/URAT1-model cells are plated on Poly-D-Lysine Coated 96-well Plates at a density of 125,000 cells per well.
Cells were grown overnight (20-26 hours) at 37° C. in an incubator. Plates were allowed to come to room temperature and media was washed out with one wash of 250 μl of Wash Buffer (125 mM Na Gluconate, 10 mM Hepes ph 7.3). Compound or vehicle is added in assay buffer with ^14C-Uric Acid for a final concentration of 125 μM Uric Acid with a specific activity of 54 mCi/mmol. Assay Buffer is 125 mM Sodium Gluconate, 4.8 mM Potassium Gluconate, 1.2 mM Potassium phosphate, monobasic, 1.2 mM magnesium sulfate, 1.3 mM Ca Gluconate, 5.6 mM Glucose, 25 mM HEPES, pH 7.3. Plates were incubated at room temperature for 10 minutes then washed 3 times with 50 μl Wash Buffer and 3 times with 250 μl Wash Buffer. Microscint 20 Scintillation Fluid was added and plates were incubated overnight at room temperature to equilibrate. Plates are then read on the TopCount Plate Reader and an EC50 value generated. (See Enomoto et al, Nature, 2002, 417, 447-451 and Anzai et al, J. Biol. Chem., 2004, 279, 45942-45950.)
Compounds as described herein were tested according to the protocol described above for the URAT-1 model assay; the results are shown in the table below wherein: […]

For `CC(C)(Sc1ccccc1-c1ccc(C(N)=O)cc1)C(=O)O` [Example 1B], the EC50 is 500 to 10000 nM. Turning to `CC(C)(Sc1ccccc1-c1ccc(CO)cc1)C(=O)O` [Example 1C], the EC50 fell in the range of 50 to 500 nM.

`N#Cc1ccc(-c2ccccc2SC2(C(=O)O)CCC2)cc1` [Example 1D]: the concentration giving a half-maximal response (EC50) was in the range of 1 to 50 nM.

Consider `O=C(O)C1(Sc2ccccc2-c2ccc(CO)cc2)CCC1` [Example 1E], for which the concentration for a half-maximal effect (EC50) lay within 50 to 500 nM. Under `O=C(O)C1(Sc2ccc(F)cc2-c2ccc(C3CC3)cc2)CCC1` [Example 1F] stands 500 to 10000 nM.

As for `N#Cc1ccc(-c2cc(F)ccc2SC2(C(=O)O)CCC2)cc1` [Example 1G], the EC50 lay in the range of 1 to 50 nM.
